# According to paper PMC7316778 (Nature Communications, 2020):
# “And” between values parts separate entries of the source, which are not always exact repeats. Equal values may be shown once. Read-outs that look alike come from different tables or passages of the source.
# How the values were obtained:
# FES^S700C HL-60 cells = assay: Proliferation ratio during macrophage differentiation; format: cell-based, human; details: for Proliferation ratio: Figure 6e, S700C
# Method: (§1) Cells were pretreated with vehicle or WEL028 (100 or 1000 nM, 1 h) prior to induction of differentiation towards monocytes/macrophages with PMA (16 nM, 48 h). Medium was refreshed with growth medium containing WEL028 and PMA after 24 h to maintain full FES inhibition. […] Threshold for CD11b-positive cells was determined using isotype control antibody. […] Kinases with native cysteine at DFG-1 position are shown in bold. All data represent means ± SEM.
# (§2) Cell lines were purchased at ATCC (HEK293T: ATCC® CRL-11268™, U2OS: ATCC® HTB-96™, HL-60: ATCC® CCL-240™) and were tested on regular basis for mycoplasma contamination. Cultures were discarded after 2–3 months of use. HEK293T (human embryonic kidney) and U2OS (human osteosarcoma) cells were cultured at 37 °C under 7% CO2 in DMEM containing phenol red, stable glutamine, 10% (v/v) high iron newborn calf serum (Seradigm), penicillin and streptomycin (200 μg/mL each; Duchefa). Medium was refreshed every 2–3 days and cells were passaged two times a week at 80–90% confluence. HL-60 (human promyeloblast) cells were cultured at 37 °C under 5% CO2 in HEPES-supplemented RPMI containing phenol red, stable glutamine, 10% (v/v) fetal calf serum (Biowest), penicillin and streptomycin (200 μg/mL each), unless stated otherwise. Cell density was maintained between 0.2 × 10^6 and 2.0 × 10^6 cells/mL. Cell viability was assessed by Trypan Blue exclusion and quantification using a TC20™ Automated Cell Counter (Bio-Rad).
# WT HL-60 cells = assay: as above; format: cell-based, human; details: Figure 6e
# Method: as §1, §2
# CSNK1E (CK1 epsilon) = CSNK1E (CK1 epsilon) (Homo sapiens, UniProt P49674); assay: SelectScreen kinase assay; details: for Inhibition at 1 µM (%): CSNK1E (CK1 epsilon), ZLYTE, ATP Km app
# Chain of CSNK1E (CK1 epsilon) (P49674 whole entry): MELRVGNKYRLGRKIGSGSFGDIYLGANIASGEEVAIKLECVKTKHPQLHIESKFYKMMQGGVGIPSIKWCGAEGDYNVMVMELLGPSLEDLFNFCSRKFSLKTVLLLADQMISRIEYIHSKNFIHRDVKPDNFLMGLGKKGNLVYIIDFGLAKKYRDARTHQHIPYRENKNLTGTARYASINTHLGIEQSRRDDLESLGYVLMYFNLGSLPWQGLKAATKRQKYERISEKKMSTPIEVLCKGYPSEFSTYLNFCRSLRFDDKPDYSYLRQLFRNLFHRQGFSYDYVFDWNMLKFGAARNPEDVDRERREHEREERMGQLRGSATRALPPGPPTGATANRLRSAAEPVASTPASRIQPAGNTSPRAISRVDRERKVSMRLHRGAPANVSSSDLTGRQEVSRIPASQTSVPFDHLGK
# Method: (§3) Selectivity profiling assays were performed by the Invitrogen SelectScreen™ Services. […] The concentration of ATP was selected to be equal to the KM, unless indicated otherwise.
# STK23 (MSSK1) = STK23 (MSSK1) (Homo sapiens, UniProt Q9UPE1); assay: SelectScreen kinase assay; details: for Inhibition at 1 µM (%): ZLYTE, ATP Km app
# Method: as §3
# EPHA2 = EPHA2 (Homo sapiens, UniProt P29317); assay: SelectScreen kinase assay
# Method: as §3
# MARK4 = target: T1, MARK4 (Homo sapiens, UniProt Q96L34); assay: SelectScreen kinase assay
# T1 sequence (Q96L34 1-752): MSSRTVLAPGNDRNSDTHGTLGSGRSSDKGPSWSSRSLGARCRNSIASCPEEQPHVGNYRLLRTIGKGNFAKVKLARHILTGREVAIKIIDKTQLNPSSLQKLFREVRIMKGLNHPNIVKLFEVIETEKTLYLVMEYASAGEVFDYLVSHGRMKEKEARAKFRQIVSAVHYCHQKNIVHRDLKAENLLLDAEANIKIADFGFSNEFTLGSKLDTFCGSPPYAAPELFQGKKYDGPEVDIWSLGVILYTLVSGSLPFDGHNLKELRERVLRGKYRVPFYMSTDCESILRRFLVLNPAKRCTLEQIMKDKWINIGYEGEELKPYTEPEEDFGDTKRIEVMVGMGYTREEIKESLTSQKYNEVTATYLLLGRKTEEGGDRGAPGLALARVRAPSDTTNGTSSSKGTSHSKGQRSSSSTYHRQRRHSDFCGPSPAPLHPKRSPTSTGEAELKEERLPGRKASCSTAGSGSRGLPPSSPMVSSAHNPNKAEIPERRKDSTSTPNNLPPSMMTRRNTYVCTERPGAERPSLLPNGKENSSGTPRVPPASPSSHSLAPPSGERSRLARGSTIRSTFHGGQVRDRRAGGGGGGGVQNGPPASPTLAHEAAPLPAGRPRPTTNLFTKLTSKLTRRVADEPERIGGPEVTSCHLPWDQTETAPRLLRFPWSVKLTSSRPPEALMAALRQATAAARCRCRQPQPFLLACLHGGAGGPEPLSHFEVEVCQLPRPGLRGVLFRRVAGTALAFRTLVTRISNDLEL
# Method: as §3
# [1] = target: PIK3CA/PIK3R1 (p110a/p85a) (Homo sapiens, UniProt P42336); assay: SelectScreen kinase assay; details: for Inhibition at 1 µM (%): PIK3CA/PIK3R1 (p110 alpha/p85 alpha), Adapta, ATP Km app
# Chain of PIK3CA/PIK3R1 (p110a/p85a) (P42336 whole entry): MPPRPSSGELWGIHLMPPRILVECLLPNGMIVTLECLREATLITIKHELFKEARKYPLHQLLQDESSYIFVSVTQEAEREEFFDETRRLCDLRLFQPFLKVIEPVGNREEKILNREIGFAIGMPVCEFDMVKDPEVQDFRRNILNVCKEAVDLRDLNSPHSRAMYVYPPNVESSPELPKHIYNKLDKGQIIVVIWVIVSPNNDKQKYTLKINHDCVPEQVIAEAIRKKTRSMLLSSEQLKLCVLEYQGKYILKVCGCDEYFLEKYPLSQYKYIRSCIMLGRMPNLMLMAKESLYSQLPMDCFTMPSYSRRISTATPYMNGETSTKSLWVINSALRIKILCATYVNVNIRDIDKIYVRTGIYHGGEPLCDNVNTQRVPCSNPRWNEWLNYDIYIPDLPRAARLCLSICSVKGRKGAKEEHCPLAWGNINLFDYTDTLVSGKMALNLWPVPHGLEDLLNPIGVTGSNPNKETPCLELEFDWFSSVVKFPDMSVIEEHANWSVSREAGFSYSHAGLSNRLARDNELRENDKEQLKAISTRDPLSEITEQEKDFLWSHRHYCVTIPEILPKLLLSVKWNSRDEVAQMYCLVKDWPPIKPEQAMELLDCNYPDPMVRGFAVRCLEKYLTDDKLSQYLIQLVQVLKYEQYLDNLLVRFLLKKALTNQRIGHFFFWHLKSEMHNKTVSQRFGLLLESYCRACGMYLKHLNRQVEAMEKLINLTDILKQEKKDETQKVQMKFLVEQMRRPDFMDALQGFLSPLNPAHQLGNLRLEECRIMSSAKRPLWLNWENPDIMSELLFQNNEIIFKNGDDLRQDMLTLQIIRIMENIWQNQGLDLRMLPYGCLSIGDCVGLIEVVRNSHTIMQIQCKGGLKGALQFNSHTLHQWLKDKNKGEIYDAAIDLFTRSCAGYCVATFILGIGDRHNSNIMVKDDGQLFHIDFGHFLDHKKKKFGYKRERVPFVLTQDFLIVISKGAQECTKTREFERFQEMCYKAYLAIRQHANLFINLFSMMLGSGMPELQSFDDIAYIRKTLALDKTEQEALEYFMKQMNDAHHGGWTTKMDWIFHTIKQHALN
# Chain of PIK3CA/PIK3R1 (p110a/p85a) (P27986 whole entry partner): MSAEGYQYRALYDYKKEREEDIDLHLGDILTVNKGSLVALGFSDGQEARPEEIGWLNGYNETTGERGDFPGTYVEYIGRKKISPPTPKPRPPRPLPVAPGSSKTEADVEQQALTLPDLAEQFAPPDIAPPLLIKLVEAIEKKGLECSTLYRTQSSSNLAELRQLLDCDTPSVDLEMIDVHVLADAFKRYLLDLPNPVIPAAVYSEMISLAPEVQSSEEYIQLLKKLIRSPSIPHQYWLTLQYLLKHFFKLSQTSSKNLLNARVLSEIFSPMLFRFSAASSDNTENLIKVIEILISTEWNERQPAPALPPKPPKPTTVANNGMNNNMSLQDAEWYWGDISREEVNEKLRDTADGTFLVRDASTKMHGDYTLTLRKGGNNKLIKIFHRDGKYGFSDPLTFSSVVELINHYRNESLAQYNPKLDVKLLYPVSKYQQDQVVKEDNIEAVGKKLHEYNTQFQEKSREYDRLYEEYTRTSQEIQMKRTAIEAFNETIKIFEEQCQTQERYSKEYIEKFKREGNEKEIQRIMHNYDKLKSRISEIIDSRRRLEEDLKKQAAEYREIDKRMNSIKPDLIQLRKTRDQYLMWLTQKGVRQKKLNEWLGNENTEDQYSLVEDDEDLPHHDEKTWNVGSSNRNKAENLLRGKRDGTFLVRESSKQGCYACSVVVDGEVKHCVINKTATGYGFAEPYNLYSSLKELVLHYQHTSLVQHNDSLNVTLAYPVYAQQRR
# Method: as §3
# LRRK2 = LRRK2 (Homo sapiens, UniProt Q5S007); assay: SelectScreen kinase assay
# Chain of LRRK2 (Q5S007 970-2527 limits assumed, species assumed): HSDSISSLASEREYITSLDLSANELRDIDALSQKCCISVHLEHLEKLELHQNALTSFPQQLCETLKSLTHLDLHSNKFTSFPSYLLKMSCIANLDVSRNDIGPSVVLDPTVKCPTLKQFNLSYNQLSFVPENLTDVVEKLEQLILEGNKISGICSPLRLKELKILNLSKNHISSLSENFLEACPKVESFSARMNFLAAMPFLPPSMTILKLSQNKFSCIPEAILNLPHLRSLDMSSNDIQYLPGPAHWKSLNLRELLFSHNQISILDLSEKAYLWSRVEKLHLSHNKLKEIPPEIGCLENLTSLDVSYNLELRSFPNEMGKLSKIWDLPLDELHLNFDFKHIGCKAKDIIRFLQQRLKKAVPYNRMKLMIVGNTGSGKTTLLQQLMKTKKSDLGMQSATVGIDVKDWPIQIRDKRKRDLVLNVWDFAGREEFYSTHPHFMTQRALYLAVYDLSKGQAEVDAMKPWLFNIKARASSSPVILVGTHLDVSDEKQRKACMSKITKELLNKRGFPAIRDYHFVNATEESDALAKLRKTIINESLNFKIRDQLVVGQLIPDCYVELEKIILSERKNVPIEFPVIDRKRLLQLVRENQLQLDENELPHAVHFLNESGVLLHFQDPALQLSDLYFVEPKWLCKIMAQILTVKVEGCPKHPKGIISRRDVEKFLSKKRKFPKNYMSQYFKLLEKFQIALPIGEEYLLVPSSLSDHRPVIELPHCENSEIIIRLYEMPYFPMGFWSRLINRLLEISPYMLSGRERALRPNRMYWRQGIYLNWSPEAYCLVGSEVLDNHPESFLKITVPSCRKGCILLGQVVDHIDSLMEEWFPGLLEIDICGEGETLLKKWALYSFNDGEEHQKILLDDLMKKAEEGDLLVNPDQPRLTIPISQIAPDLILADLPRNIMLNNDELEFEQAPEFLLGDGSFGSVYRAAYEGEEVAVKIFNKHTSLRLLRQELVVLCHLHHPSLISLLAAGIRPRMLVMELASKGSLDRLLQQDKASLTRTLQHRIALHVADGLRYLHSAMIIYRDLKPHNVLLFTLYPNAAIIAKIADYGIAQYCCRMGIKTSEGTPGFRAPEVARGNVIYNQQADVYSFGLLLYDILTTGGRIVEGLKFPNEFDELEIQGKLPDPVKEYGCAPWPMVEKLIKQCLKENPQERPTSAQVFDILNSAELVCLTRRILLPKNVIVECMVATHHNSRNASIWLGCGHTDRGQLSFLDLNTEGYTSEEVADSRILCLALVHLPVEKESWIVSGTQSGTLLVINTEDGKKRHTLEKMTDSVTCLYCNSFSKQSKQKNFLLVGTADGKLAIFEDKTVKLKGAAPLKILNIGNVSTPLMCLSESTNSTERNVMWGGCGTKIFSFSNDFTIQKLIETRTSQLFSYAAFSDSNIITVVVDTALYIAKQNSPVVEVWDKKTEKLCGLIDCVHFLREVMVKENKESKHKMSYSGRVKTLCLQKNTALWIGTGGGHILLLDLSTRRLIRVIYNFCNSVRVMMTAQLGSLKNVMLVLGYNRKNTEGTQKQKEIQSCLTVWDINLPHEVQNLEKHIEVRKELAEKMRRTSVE
# Method: as §3
# NEK2 = NEK2 (Homo sapiens, UniProt P51955); assay: SelectScreen kinase assay
# Method: as §3
# PDGFRA (PDGFR alpha) = PDGFRA (PDGFR alpha) (Homo sapiens, UniProt P16234); assay: SelectScreen kinase assay
# Method: as §3
# SRPK2 = SRPK2 (Homo sapiens, UniProt P78362); assay: SelectScreen kinase assay; details: 1 h, 1 μM WEL028, 1 h preincubation
# Method: as §3
# AKT3 (PKB gamma) = AKT3 (PKB gamma) (Homo sapiens, UniProt Q9Y243); assay: SelectScreen kinase assay; details: for Inhibition at 1 µM (%): AKT3 (PKB gamma), ZLYTE, ATP Km app
# Chain of AKT3 (PKB gamma) (Q9Y243 whole entry): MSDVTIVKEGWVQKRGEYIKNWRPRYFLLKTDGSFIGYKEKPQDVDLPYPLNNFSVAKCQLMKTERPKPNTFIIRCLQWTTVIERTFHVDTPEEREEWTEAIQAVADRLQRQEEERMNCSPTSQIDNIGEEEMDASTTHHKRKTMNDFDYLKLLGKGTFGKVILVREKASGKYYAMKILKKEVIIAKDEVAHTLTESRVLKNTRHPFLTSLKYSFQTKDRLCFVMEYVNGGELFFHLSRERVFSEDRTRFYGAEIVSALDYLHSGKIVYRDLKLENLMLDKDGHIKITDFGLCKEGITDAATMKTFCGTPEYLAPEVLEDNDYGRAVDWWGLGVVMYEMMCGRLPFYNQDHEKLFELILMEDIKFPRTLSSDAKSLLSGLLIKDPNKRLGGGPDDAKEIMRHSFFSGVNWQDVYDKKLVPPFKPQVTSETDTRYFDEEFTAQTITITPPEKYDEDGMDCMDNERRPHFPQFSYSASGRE
# Method: as §3
# JAK2 = JAK2 (Homo sapiens, UniProt O60674); assay: SelectScreen kinase assay; details: 1 μM WEL028, 1 h preincubation
# Method: as §3
# FGFR3 = FGFR3 (Homo sapiens, UniProt P22607); assay: SelectScreen kinase assay
# Method: as §3
# endogenous FES^S700C = endogenous FES^S700C (Homo sapiens, UniProt P07332, S700C); assay: Gel-based target engagement in HL-60 neutrophils
# Chain of endogenous FES^S700C (P07332 whole entry S700C): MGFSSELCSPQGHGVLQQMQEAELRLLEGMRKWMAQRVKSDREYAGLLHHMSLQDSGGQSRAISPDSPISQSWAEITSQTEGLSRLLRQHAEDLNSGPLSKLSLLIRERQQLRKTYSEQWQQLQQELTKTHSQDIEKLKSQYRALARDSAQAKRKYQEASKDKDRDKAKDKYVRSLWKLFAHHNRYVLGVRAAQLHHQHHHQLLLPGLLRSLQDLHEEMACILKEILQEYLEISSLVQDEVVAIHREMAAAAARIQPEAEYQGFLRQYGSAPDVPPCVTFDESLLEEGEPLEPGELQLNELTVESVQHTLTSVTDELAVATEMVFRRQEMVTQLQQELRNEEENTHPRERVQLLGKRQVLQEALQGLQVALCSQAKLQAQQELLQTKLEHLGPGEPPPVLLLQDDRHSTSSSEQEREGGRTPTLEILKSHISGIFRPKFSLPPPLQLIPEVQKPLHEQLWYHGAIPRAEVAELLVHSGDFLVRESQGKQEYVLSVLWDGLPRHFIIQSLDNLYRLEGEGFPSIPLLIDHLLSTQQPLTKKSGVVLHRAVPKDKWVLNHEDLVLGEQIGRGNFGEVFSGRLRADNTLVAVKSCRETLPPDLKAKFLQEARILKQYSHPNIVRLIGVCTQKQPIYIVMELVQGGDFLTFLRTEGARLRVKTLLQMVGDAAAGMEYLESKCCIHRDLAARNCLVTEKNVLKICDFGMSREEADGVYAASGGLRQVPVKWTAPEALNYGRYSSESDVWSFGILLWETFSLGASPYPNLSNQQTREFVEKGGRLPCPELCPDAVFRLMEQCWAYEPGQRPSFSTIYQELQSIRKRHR
# Method: Data represent means ± SEM.
# The term in situ is used to designate experiments in which live cell cultures are treated with inhibitor, whereas the term in vitro refers to experiments in which the inhibitor is incubated with cell lysates. Compounds were diluted in growth medium from a 1000x concentrated stock solution in DMSO. […] After 48 h, cells were treated with compound for 1 h. Cells were collected by suspension in PBS and centrifuged (1000g, 5 min, rt). Pellets were flash-frozen in liquid nitrogen and stored at −80 °C until use. For in situ treatment post-differentiation, HL-60 cells were differentiated as described above and incubated with compound for 1 h unless specified otherwise. Cells were collected by suspension for non-adherent cells and trypsinization for adherent cells. After collection, cells were centrifuged (200g, 5 min, rt) and washed in equal volume of PBS (1000g, 5 min, rt). Cell pellets were flash-frozen in liquid nitrogen and stored at −80 °C until use.
# [2] = 1 h, 1 μM WEL028, 1 h preincubation
# [3] = IC50 on that kinase divided by IC50 on FES^S700C
smiles,measurement,setting,value
C#CCOc1ccc(Nc2ncc(Cl)c(Nc3ccccc3NC(=O)C=C)n2)c(OC)c1 [Compound 6],Cell proliferation,FES^S700C HL-60 cells; 100 nM WEL028 vs vehicle,decreased to identical levels
same,Cell proliferation,FES^S700C HL-60 cells; 1 µM WEL028,less pronounced decrease in proliferation
same,Proliferation ratio,FES^S700C HL-60 cells; WEL028 100 nM,1.219 and 1.226 and 1.503
same,Proliferation ratio,FES^S700C HL-60 cells; WEL028 1 µM,2.372 and 2.5075 and 3.084
same,Proliferation ratio,WT HL-60 cells; WEL028 100 nM,1.995 and 1.877 and 1.706
same,Proliferation ratio,WT HL-60 cells; WEL028 1 µM,2.7225 and 2.805 and 3.0525
same,inhibition at 1 µM,CSNK1E (CK1 epsilon); [2],9%
same,Inhibition at 1 µM (%),CSNK1E (CK1 epsilon),14%
same,Inhibition at 1 µM (%),"CSNK1E (CK1 epsilon); listed as WEL028, 1 µM",4%
same,Inhibition at 1 µM (%),STK23 (MSSK1),2%
same,Inhibition at 1 µM (%),"STK23 (MSSK1); listed as WEL028, 1 µM",-4%
same,inhibition at 1 µM,STK23 (MSSK1); [2],-1%
same,inhibition at 1 µM,EPHA2; [2],7%
same,Inhibition at 1 µM (%),"EPHA2; EPHA2, 1 µM, ZLYTE, ATP Km app",13%
same,Inhibition (%),"MARK4; 1 μM WEL028, 1 h preincubation",8%
same,Inhibition at 1 µM (%),"MARK4; MARK4, 1 µM, ZLYTE, ATP Km app, listed as WEL028, 1 µM",6%
same,inhibition at 1 µM,"MARK4; read-out: Inhibition at 1 µM (%), MARK4, 1 µM, ZLYTE, ATP Km app",9%
same,inhibition at 1 µM,[1]; [2],14%
same,Inhibition at 1 µM (%),[1],19%
same,Inhibition at 1 µM (%),"[1]; listed as WEL028, 1 µM",9%
same,IC50,LRRK2,50.1 nM
same,inhibition at 1 µM,LRRK2; 1 h,94%
same,Apparent fold selectivity,LRRK2; [3],12 fold
same,inhibition at 1 µM,LRRK2; read-out: Inhibition at 1 µM (%),94%
same,inhibition at 1 µM,NEK2; [2],12%
same,Inhibition at 1 µM (%),"NEK2; NEK2, 1 µM, ZLYTE, ATP Km app",21%
same,IC50,PDGFRA (PDGFR alpha),794 nM
same,inhibition at 1 µM,PDGFRA (PDGFR alpha); [2],63%
same,inhibition at 10 µM,"PDGFRA (PDGFR alpha); 1 h, log[inhibitor] (M) -5.00, ZLYTE, ATP Km app",90%
same,inhibition at 3.31 µM,"PDGFRA (PDGFR alpha); 1 h, log[inhibitor] (M) -5.48, ZLYTE, ATP Km app",93%
same,inhibition at 1.12 µM,"PDGFRA (PDGFR alpha); 1 h, log[inhibitor] (M) -5.95, ZLYTE, ATP Km app",61%
same,inhibition at 0.372 µM,"PDGFRA (PDGFR alpha); 1 h, log[inhibitor] (M) -6.43, ZLYTE, ATP Km app",22%
same,inhibition at 0.123 µM,"PDGFRA (PDGFR alpha); 1 h, log[inhibitor] (M) -6.91, ZLYTE, ATP Km app",7%
same,Apparent fold selectivity,PDGFRA (PDGFR alpha); [3],184 fold
same,Inhibition at 1 µM (%),"PDGFRA (PDGFR alpha); PDGFRA (PDGFR alpha), 1 µM, ZLYTE, ATP Km app, listed as WEL028, 1 µM",58%
same,inhibition at 1 µM,"PDGFRA (PDGFR alpha); read-out: Inhibition at 1 µM (%), PDGFRA (PDGFR alpha), 1 µM, ZLYTE, ATP Km app",68%
same,inhibition at 1 µM,SRPK2,-1%
same,inhibition at 1 µM,AKT3 (PKB gamma); [2],1%
same,Inhibition at 1 µM (%),AKT3 (PKB gamma),3%
same,Inhibition at 1 µM (%),"AKT3 (PKB gamma); listed as WEL028, 1 µM",0%
same,Inhibition (%),JAK2,0%
same,inhibition at 1 µM,FGFR3; [2],6%
same,inhibition at 1 µM,"FGFR3; read-out: Inhibition at 1 µM (%), FGFR3, 1 µM, ZLYTE, ATP Km app",7%
same,Inhibition of FES in live neutrophils,"endogenous FES^S700C; 100 nM, 1 h",complete and selective inhibition of FES
same,Relative FES labeling (%),"endogenous FES^S700C; Figure 7b, replicates, listed as WEL028",9.291% and 9.41% and 8.966%
